ChEMBL document CHEMBL1201862, “PubChem BioAssay data set” (2004)
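1) Cells in 96-well plates. 2) Compound, 48 h, 5 concentrations. 3) Linear interpolation between surrounding doses. 4) Unreached endpoint = highest concentration. The concentration for 50% growth inhibition is given as GI50.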 Active and inactive are the calls of the source. Rule as the data show it: active = GI50 up to about 1.1 µM and inactive = higher.

Tests used:
Assay in all cases: NCI tumour cell line growth inhibition, 48 h
[1] = test system: HCT-116
[2] = test system: OVCAR-4
[3] = test system: SN12C
[4] = test system: OVCAR-8
[5] = test system: PC-3
[6] = test system: HL-60
[7] = test system: NCI-H226
[8] = test system: SR
[9] = test system: 786-0
[10] = test system: SNB-75
[11] = test system: DU-145
[12] = test system: SF-295
[13] = test system: SK-MEL-5
[14] = test system: NCI/ADR-RES
[15] = test system: UACC-62
[16] = test system: NCI-H522
[17] = test system: SW-620
[18] = test system: RPMI-8226
[19] = test system: HCC 2998
[20] = test system: MDA-MB-231

Measured: GI50

O=C(O)Cc1ccc(Nc2nc3cc(C(F)(F)F)ccc3nc2C(=O)O)cc1
inactive: [1] > 100 µM | [2] > 100 µM | [3] > 100 µM | [4] > 100 µM | [5] > 100 µM | [6] > 100 µM | [7] > 100 µM | [9] > 100 µM | [10] > 100 µM | [11] > 100 µM | [12] > 100 µM | [13] > 100 µM | [14] > 100 µM | [15] > 100 µM | [16] > 100 µM | [17] > 100 µM
active: [8] < 0.01 µM

COC(=O)CCC(NC(=S)N/N=C(\C)c1ccccn1)C(=O)OC (centres undefined)
inactive: [1] 60.8 µM | [2] > 100 µM | [3] 89.1 µM | [4] 66.8 µM | [6] 18.5 µM | [7] 60.7 µM | [8] > 10 µM | [9] 65.8 µM | [10] > 100 µM | [18] 44.4 µM | [12] 59.2 µM | [19] > 100 µM | [13] 40.5 µM | [15] 34.8 µM | [16] 33.3 µM | [17] 55.3 µM

C[C@@H]1CC[C@]2(C)C3(C)CC[C@]2(OC3=O)[C@@]12CC(c1ccoc1)OC2=O (some centres undefined)
inactive: [1] 17.5 µM | [2] 20.7 µM | [3] 33.8 µM | [5] 40.6 µM | [6] 21.6 µM | [7] > 100 µM | [8] 34.8 µM | [9] 20.5 µM | [18] 38.2 µM | [11] > 100 µM | [12] > 100 µM | [19] > 100 µM | [13] 62.5 µM | [14] 49.3 µM | [15] 61.4 µM | [16] 2.15 µM | [17] 26.9 µM

O=C1c2c(c(-c3ccccc3)c(-c3ccccc3)c(-c3ccccc3)c2-c2ccccc2)C(=O)N1c1cccc(Br)c1
inactive: [1] > 100 µM | [2] > 100 µM | [3] > 100 µM | [4] > 100 µM | [6] > 100 µM | [7] > 100 µM | [8] > 100 µM | [9] > 100 µM | [10] > 100 µM | [18] > 100 µM | [12] > 100 µM | [19] > 100 µM | [13] > 100 µM | [15] > 100 µM | [16] > 100 µM | [17] > 100 µM

C=C1C(=O)O[C@H]2C1C[C@@H](OC(C)=O)/C(C)=C/CC[C@@]1(C)O[C@H]21 (some centres undefined)
inactive: [1] 8.75 µM | [2] 13 µM | [3] 14.3 µM | [4] 16.1 µM | [5] 15.3 µM | [8] 3.38 µM | [9] 11.5 µM | [10] 28.2 µM | [18] 2.27 µM | [11] 14.6 µM | [12] 21.1 µM | [19] 13 µM | [13] 5.53 µM | [14] 11 µM | [15] 3.05 µM | [16] 2.26 µM | [17] 4.47 µM

COc1ccc(C[C@@H]2CN(C(=O)c3ccccc3)[C@H](Cc3ccc(O)cc3)CN2C(=O)c2ccccc2)cc1Br
inactive: [1] > 100 µM | [2] > 100 µM | [3] > 100 µM | [4] > 100 µM | [5] 55.2 µM | [6] > 100 µM | [7] > 100 µM | [8] 88.3 µM | [9] > 100 µM | [10] > 100 µM | [18] 82.8 µM | [11] > 100 µM | [12] > 100 µM | [19] > 100 µM | [14] > 100 µM | [17] > 100 µM

CC(=O)N1c2ccccc2N(C(C)=O)C1c1ccc(C2N(C(C)=O)c3ccccc3N2C(C)=O)[nH]1
inactive: [1] > 100 µM | [2] > 100 µM | [3] > 100 µM | [4] > 100 µM | [6] > 100 µM | [7] > 100 µM | [8] > 100 µM | [9] > 100 µM | [10] > 100 µM | [18] > 100 µM | [12] > 100 µM | [19] > 100 µM | [13] > 100 µM | [15] > 100 µM | [16] > 100 µM | [17] > 100 µM

CCCCC(=O)OCC(=O)[C@]1(O)Cc2c(O)c3c(c(O)c2[C@@H](OC2CC(NC(=O)C(F)(F)F)C(O)C(C)O2)C1)C(=O)c1c(OC)cccc1C3=O (some centres undefined)
inactive: [2] 2.08 µM | [5] 1.14 µM | [19] 1.3 µM | [20] 3 µM
active: [1] 0.294 µM | [3] 0.29 µM | [4] 0.519 µM | [6] 0.126 µM | [7] 0.0401 µM | [8] 0.0304 µM | [9] 0.232 µM | [10] 1.02 µM | [18] 0.181 µM | [11] 0.365 µM | [12] 0.308 µM | [13] 0.327 µM | [15] 0.184 µM | [16] 0.736 µM | [17] 0.261 µM
